Reference: patent US11123340B2, “Small-molecule UT-A-selective urea transport inhibitors” (The Regents of the University of California, priority 2014, dated 2021)

Assays:
Pharmacokinetics in rats = format: in vivo; settings: rat; for half-life: plasma, read-out: plasma elimination t1/2 (converted)
Procedure: UTAinh-E02 or UTAinh-F11 was administered at 20 mg/kg intravenously by tail vein to rats. UTAinh-E02 was formulated as a 5 mg/mL saline solution containing 20% dimethylacetamide and 40% 2-hydroxypropyl γ-cyclodextrin; UTAinh-F11 was formulated as a 5 mg/mL saline solution containing 20% dimethylacetamide and 0.6 mg/mL NaOH. Blood samples were collected from the tail vein into K3EDTA mini collecting tubes (Greiner, Kremsmunster, Austria) at specified time points. Plasma samples were separated by centrifugation and kept frozen at −20 OC until analysis. Urine samples were also collected. Calibration standards were prepared in urine and plasma from control (non-treated) rats to which known amounts of UTAinh-E02 or UTAinh-F11 were added. The mixture was centrifuged for 20 min at 13,200 rpm and 90 μL of supernatant was taken for LC/MS. The solvent system consisted of a linear gradient from 5% to 95% acetonitrile containing 0.1% formic acid over 16 min (0.2 mL/min flow). Mass spectra was acquired on a mass spectrometer (Waters 2695+micromass ZQ; Waters) using electrospray (+) ionization, mass ranging from 100 to 1500 Da, 40-V cone voltage.
Several vehicles and administration routes were tested in order to give predicted therapeutic inhibitor concentrations in blood and urine. […] Because of the alkaline pH of the administered compounds the vehicle control for UTAinh-F11 was 20% dimethylacetamide and 1.2 mg/mL NaHCO3 in saline to give identical pH. […] Urine levels of UTAinh-F11 were >3 μM over 6 h.

[1] = test system: multiple anion (CFTR, calcium-activated chloride channels) and cation (K+, Na+) channels; assay: Short-circuit current in MDCK cells (ion channel off-target effects); format: cell-based, canine; settings: 20 μM inhibitor, forskolin and ATP
Procedure: MDCK cells on black 96-well Costar microplates with clear plastic bottoms were cultured for 24 h at 37° C. and incubated with test compounds (0 to 25 μM) for 24 h. Cell viability was assayed using AlamarBlue (Pierce, Rockford, Ill.) in which the reagent was added to each well, incubated for 30 min, and absorbance measured at 590 nm. For short-circuit current measurement, snapwell inserts containing MDCK cells were mounted on Ussing chambers. Test compounds (20 μM) were incubated with MDCK cells at both apical and basolateral sides for 10 min at 37° C. prior to addition of 20 μM forskolin and then 100 μM ATP. The apical and basolateral chambers contained identical solutions: 120 mM NaCl, 5 mM KCl, 1 mM MgCl2, 1 mM CaCl2, 5 mM HEPES, 25 mM NaHCO3 and 10 mM glucose. Solutions were bubbled with 5% CO2/95% O2 and maintained at 37° C. […]
Compound toxicity was evaluated by compound incubation for 24 h with MDCK cell cultures followed by Alamar blue assay. […] To assess potential ion channel off-target effects, short-circuit current was measured in MDCK cells in response to cAMP (forskolin) and calcium (ATP) agonists (FIG. 5C, right), which depends on the actions of multiple anion (CFTR, calcium-activated chloride channels) and cation (K^+, Na^+) channels.

[2] = intraperitoneal, subcutaneous or oral, up to 100 mg/kg

half-life (Pharmacokinetics in rats; intravenous 20 mg/kg)	plasma concentration (Pharmacokinetics in rats; [2])	urine concentration (Pharmacokinetics in rats; [2])	urine level initially (Pharmacokinetics in rats; intravenous 20 mg/kg)	urine levels over 6 h (Pharmacokinetics in rats; intravenous 20 mg/kg)	SMILES	plasma level initially (Pharmacokinetics in rats; intravenous 20 mg/kg)	short-circuit current [1]
~4.5 h	< 1 µM	< 1 µM	~3 µM		CC(=O)Nc1ccc(-c2csc(-c3c[nH]c4ccccc34)n2)cc1 [UTA1inh-E02, N-(4-(2-(1H-indol-3-yl)thiazol-4-yl)phenyl)acetamide]	~6 µM	Neither inhibitor at 20 μM altered short-circuit current
~1 h				> 3 µM	COc1ccc(C)cc1S(=O)(=O)Nc1ccc(Cl)c(N2CCCS2(=O)=O)c1 [UTA1inh-F11, N-[4-Chloro-3-(1,1-dioxido-1,2-thiazolidin-2-yl)phenyl]-2-methoxy-5-methylbenzene-sulfonamide]	higher initial plasma levels than UTAinh-E02	Neither inhibitor at 20 μM altered short-circuit current
